Measurements from US7855292B2, “Sulfonamide compounds” (Janssen Pharmaceutica NV, priority 2004, dated 2010).

What was measured:
[1] = target: T1, CCK2 receptor (Cavia porcellus, UniProt H0VZC5); experiment: Guinea-pig gastric corpeal muscle assay (pentagastrin-induced contraction); conditions: isolated guinea-pig gastric corpeal muscle strips, pentagastrin concentration-response curves
T1 construct: strips of muscle were dissected and suspended in isolated tissue organ baths; from tissue; host or cells: guinea-pig gastric corpeal muscle strips
T1 sequence (H0VZC5 1-426): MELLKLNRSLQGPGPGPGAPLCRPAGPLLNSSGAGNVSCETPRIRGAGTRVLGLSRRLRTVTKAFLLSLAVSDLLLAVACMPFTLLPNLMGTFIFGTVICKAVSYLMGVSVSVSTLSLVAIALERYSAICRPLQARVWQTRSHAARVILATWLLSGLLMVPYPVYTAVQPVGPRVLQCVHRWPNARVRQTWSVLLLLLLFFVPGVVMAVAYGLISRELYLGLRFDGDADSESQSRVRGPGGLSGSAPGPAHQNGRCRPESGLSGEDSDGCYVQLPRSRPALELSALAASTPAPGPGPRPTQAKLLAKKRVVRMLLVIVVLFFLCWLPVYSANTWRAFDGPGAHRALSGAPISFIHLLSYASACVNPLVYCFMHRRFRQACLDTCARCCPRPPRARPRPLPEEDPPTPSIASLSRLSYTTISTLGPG
Method: B. Guinea-Pig Gastric Corpeal Muscle Assay
CCK2 receptor-mediated muscle contraction was measured in an isolated muscle-strip assay of guinea-pig gastric corpeal muscle according to the methods described by Roberts et al. (S. P. Roberts, E. A. Harper, G. F. Watt, V. P. Gerskowitch, R. A. Hull, N. P. Shankley, and J. W. Black, Br. J. Pharmacol., 1996, 118(7):1779-1789). In brief, strips of muscle were dissected and suspended in isolated tissue organ baths for isotonic muscle contraction recording. The baths, containing Krebs-Henseleit solution, were maintained at 24° C. and gassed continuously with 95% O2 and 5% CO2. CCK1 receptors known to be present in this assay were blocked using a selective concentration of a suitable CCK1 receptor antagonist (e.g. 2-NAP). The effectiveness of the test compounds was assessed by measuring their effect on contractile concentration-response curves obtained using a well-characterized surrogate for the hormone gastrin (pentagastrin).

[2] = target: T2, CCK2 receptor (Homo sapiens, UniProt P32239); experiment: CCK2 binding assay ([125I]-BH-CCK-8S displacement, HEKZFP membranes); conditions: membranes of doxycycline-induced HEKZFP cells; 20 pM [125I]-BH-CCK-8S; 60 min at 21±3° C.; read-out: CCK2 pKi (converted)
T2 construct: analyzed for ZFP expression as well as CCK2R induction upon addition of doxycycline to the culture medium; endogenous in cells
T2 sequence (P32239 1-447): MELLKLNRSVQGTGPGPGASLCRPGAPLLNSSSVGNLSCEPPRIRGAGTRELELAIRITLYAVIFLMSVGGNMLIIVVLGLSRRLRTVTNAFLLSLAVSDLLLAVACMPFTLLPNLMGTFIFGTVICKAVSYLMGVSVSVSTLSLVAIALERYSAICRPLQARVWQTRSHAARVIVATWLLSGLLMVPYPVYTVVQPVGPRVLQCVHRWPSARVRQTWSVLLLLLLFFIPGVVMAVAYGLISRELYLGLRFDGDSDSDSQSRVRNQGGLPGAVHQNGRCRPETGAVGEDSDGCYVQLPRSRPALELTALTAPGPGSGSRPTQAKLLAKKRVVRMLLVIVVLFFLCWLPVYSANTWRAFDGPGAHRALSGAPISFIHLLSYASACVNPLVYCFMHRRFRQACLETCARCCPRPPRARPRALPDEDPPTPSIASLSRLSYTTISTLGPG

- behaviour in the muscle contraction assay (mode of antagonism) [1]: competitive antagonist
- Kb ([1]; CCK1 receptors blocked (e.g. 2-NAP), 24° C.): 1.58 nM
- Ki [2]: 31.6 nM
SMILES: O=C(N[C@@H](Cc1ccc(Cl)c(Cl)c1)C(=O)O)c1ccc(I)cc1NS(=O)(=O)c1cccc2nsnc12 [Example 2, (S)-2-[2-(Benzo[1,2,5]thiadiazole-4-sulfonylamino)-4-iodo-benzoylamino]-3-(3,4-dichloro-phenyl)-propionic acid]
